Data as given in ChEMBL document CHEMBL1201862, “PubChem BioAssay data set” (2004).
The source made the active and inactive calls.

Legend:
[1] = biological target: T1, Heat shock 70 kDa protein 1A (Homo sapiens, UniProt P0DMV8); assay: Hsp70 inhibitors, probe displacement, primary screen, biochemical, fluorescence polarization (AID 583)
[2] = Luminescence Cell-Based Dose Retest to Confirm Inhibitors of Cancer Stem Cells. [Related pubchem assays (depositor defined):AID2717, AID2721]; assay type: functional; settings: Homo sapiens
[3] = biological target: T1, Heat shock 70 kDa protein 1A; assay: Hsp70 inhibitors, biochemical, TR-FRET (AID 786)
[4] = biological target: Serine/threonine-protein phosphatase PP1-alpha catalytic subunit (Homo sapiens, UniProt P62136); assay: PP1 phosphatase inhibitors, dose response, biochemical, fluorescence (AID 2403);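 also: phosphatase turnover of OMFP into fluorescent 3-O-methylfluorescein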
[5] = biological target: Serine/threonine-protein phosphatase (Homo sapiens, UniProt Q9BPW0); assay: Counterscreen for inhibitors of PP1: fluorescence-based biochemical high throughput dose response assay to identify inhibitors of Protein Phosphatase 5 (PP5). [Related pubchem assays: 2034 (Summary (PP5 inhibitors)), 1987 (PP5 inhibitors in singlate), 2235 (PP1 inhibitors in singlate)]
[6] = biological target: Sphingosine 1-phosphate receptor 2 (Homo sapiens, UniProt O95136); assay: Dose Response Cell Based Assay for Agonists of the S1P2 Receptor of Purchased Analogues. [Related pubchem assays: 729, 843, 854, 736 ]; assay type: functional
Bcl-2-like protein 10 = Bcl-2-like protein 10 (Homo sapiens, UniProt Q9HD36); assay: Biochemical TR3 FP assay of Bcl-B inhibitor potency, EC50 (AID 1243); assay type: functional
[7] = cytotoxicity toward NIH3T3 fibroblasts, dose response, counter-screen, cell-based, ATP luminescence, mouse fibroblasts (AID 2010); assay type: functional;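 also: cells exposed to compound for about 90 hours before reading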
[8] = biological target: T2, Neuropeptide Y receptor type 2 (Homo sapiens, UniProt P49146); assay type: functional, cell-based;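 also: HEK293 cells expressing the receptor and a CNG channel; stimulus was NPY near EC95 followed by isoproterenol to raise cAMP; antagonist potency measured as restoring cAMP signal that NPY suppresses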
T2 sequence (P49146 whole entry): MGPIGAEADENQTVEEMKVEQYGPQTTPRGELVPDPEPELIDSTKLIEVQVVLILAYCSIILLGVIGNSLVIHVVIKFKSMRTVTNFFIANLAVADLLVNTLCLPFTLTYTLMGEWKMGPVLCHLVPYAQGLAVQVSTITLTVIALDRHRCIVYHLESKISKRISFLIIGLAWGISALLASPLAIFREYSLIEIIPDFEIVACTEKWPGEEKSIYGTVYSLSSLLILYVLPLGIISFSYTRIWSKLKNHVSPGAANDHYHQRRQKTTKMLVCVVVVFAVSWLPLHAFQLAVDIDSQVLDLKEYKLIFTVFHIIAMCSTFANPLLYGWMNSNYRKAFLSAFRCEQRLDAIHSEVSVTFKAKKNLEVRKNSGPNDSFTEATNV

[9] = inhibitors of intracellular T. cruzi replication, confirmation, NIH3T3 host cells, beta-gal luminescence (AID 2044); assay type: functional, cell-based;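 also: intracellular parasites grown in NIH/3T3 mouse fibroblasts as host cells; luminescent beta-galactosidase reporter signal from transgenic T. cruzi replicating inside host cells; inhibitors lower the luminescence signal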
[10] = inhibitors of SNCA 5'UTR-driven reporter translation, confirmation, H4 neuroglioma cells, luminescence (AID 1988); assay type: functional, cell-based
[11] = inhibitors of firefly luciferase expression or activity, dose response, H4 neuroglioma cells, luminescence (AID 1990); assay type: functional, cell-based
[12] = Luminescence Cell-Based Dose Response HTS to Identify Inhibitors of 5'UTR Stem-Loop Driven Prion Protein mRNA Translation in H4 Neuroglioblastoma Cells. [Related pubchem assays: 1827 (Project Summary), 1813 (Primary HTS)]; assay type: functional
[13] = biological target: T3, Neuropeptide Y receptor type 1 (Homo sapiens, UniProt P25929); assay type: functional;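 also: HEK293 cells with a CNG channel challenged with NPY then isoproterenol; potency as antagonist that reverses NPY suppression of cAMP signal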
T3 sequence (P25929 whole entry): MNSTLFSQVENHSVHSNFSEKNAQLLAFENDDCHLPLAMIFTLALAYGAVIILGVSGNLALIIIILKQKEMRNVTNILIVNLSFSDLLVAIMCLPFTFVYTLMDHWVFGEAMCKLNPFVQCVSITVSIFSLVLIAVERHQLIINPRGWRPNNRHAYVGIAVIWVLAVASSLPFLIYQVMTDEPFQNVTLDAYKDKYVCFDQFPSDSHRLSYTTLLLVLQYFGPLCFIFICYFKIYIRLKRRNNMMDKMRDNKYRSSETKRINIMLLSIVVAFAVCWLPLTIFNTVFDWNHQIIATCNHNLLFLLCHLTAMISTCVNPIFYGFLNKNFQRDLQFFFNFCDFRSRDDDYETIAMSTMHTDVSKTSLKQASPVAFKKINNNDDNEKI
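For AC50 in this document: cells exposed to compound for roughly 70 hours or longer before luminescence read.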

T1 sequence (P0DMV8 whole entry): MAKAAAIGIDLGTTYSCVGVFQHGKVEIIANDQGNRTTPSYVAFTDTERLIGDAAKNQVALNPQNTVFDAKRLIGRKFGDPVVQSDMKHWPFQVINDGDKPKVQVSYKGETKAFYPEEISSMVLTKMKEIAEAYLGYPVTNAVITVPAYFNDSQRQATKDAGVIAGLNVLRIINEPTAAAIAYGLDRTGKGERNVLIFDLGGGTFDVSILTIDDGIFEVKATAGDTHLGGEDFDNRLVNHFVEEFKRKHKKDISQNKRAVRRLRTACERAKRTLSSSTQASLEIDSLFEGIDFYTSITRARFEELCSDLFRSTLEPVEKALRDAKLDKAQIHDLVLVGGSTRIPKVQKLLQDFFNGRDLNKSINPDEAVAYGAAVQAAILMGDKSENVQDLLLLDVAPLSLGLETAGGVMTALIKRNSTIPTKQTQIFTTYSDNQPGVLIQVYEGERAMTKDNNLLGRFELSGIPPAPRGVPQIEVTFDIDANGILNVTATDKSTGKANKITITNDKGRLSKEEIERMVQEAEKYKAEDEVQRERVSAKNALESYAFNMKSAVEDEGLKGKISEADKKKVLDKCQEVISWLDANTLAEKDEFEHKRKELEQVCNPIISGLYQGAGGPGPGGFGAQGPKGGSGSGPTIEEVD
Serine/threonine-protein phosphatase, sequence (Q9BPW0 whole entry): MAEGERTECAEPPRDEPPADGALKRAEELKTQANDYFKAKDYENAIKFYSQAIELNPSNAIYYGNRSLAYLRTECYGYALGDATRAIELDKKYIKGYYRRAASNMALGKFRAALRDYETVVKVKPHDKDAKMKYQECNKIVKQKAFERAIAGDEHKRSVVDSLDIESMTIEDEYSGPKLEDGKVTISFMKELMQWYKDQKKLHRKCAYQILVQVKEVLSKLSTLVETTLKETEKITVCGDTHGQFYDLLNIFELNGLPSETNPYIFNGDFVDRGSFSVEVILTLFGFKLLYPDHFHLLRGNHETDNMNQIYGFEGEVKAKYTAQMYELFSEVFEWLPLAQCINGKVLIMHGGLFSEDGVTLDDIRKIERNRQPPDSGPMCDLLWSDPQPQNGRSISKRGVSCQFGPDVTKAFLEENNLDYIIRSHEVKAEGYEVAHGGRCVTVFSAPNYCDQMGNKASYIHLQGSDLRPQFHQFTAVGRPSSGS
Sphingosine 1-phosphate receptor 2, sequence (O95136 whole entry): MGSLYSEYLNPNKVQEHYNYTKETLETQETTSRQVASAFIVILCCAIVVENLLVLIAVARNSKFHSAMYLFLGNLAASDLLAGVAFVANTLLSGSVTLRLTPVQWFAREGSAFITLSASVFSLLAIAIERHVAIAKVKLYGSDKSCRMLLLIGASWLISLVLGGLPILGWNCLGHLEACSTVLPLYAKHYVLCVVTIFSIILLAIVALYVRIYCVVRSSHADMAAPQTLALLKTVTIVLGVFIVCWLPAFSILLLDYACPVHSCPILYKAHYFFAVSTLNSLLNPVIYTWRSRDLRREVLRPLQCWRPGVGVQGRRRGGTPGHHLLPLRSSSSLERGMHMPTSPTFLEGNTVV
Bcl-2-like protein 10, sequence (Q9HD36 whole entry): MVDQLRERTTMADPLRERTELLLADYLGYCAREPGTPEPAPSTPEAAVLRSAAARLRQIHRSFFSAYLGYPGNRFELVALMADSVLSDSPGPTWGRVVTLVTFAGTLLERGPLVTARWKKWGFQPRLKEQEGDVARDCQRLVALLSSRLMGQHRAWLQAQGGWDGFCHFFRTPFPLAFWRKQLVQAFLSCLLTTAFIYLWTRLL
Serine/threonine-protein phosphatase PP1-alpha catalytic subunit, sequence (P62136 whole entry): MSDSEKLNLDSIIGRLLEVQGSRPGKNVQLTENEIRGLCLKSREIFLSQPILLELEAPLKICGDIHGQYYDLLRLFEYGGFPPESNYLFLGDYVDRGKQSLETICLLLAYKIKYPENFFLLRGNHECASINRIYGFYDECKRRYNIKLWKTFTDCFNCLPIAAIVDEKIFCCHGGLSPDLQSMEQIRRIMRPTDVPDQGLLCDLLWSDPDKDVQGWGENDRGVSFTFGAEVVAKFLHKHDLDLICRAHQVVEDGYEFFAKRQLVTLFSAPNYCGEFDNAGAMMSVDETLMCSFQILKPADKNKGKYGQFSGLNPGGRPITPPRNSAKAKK

For `CCCc1cc(SCC(=O)Nc2c(C)n(C)n(-c3ccccc3)c2=O)n2c(nc3ccccc32)c1C#N`, the IC50 [1] was > 100 µM (not active), the AC50 [2] was > 195 µM (inactive) and the IC50 [3] was > 100 µM (not active).

For `O=C(O)c1cc(-c2ccc(Cl)cc2)n(-c2cccc(Cl)c2)n1`, the IC50 [4] was 8.1 µM (active) and the IC50 [5] was > 67 µM (not active).

For `Cc1cc(C(=O)CN(C)CC(=O)N(C)C)c(C)n1Cc1ccccc1`, the EC50 [6] was > 30 µM (not active).

For `C=CCN1C(=O)/C(=C\c2cccn2-c2cccc([N+](=O)[O-])c2)C(=O)NC1=S`, the EC50 (Bcl-2-like protein 10) was 5.36 µM (active).

In the case of `CCOc1ccc(-n2cc(C(=O)Nc3cccc(Cl)c3)c3cc(OC)c(OC)cc3c2=O)cc1`, the EC50 [7] is reported as > 60 µM (not active), the IC50 [8] is reported as > 35 µM (not active) and the EC50 [9] is reported as 3.7 µM (active). For the same molecule, the EC50 [10] was > 120 µM (not active), the EC50 [11] was 21.5 µM (active) and the EC50 [12] was > 120 µM (not active). For the same molecule, the IC50 [13] was > 35 µM (not active).
